Data from the supplement of paper PMC11208160.

Assay: recombinant barcode read abundance after kanamycin selection (control-corrected) (log10(CPM+1)); higher = more efficient recombination; sequences stand for … in AGTGCAGAGAAAATCGGCCAGTTTTCTCTGCCTGCAGTCCGCATGCCGT…AGATTTATGCAGCGGACTGCCTTTCTCCCAAAGTGATAAACCGGACAGTATCATGGACCGGTTTTCCCGGTAATCCGTATTTGCAAGGTTGGTTTCACT; site = the 11-nt target
Summary of the method: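 In E. coli, a pooled library matched targets to IS621 bridge RNA target-binding loops and was introduced alongside a donor plasmid. Cells went onto chloramphenicol/ampicillin/kanamycin with 0.1 mM IPTG or onto chloramphenicol/ampicillin LB agar as control, in duplicate. Recombination efficiency, from recombinant-junction barcodes as counts per million, is averaged and control-corrected. It is reported as log10(CPM+1).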
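Further: IS621 recombinase and bridge RNA in Escherichia coli cells.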

Sequence	recombinant barcode read abundance (log10)
CTCTCAGCTTGGGTTCTAACCTGTTGCGA (site CTCTCAGCTTC)	0.549
CTCTCCACTTGGGTTCTAACCTGTTGCCA (site CTCTCCACTTG)	0.138
CTCTCCACTTGGGTTCTAACCTGTTGCCA (site CTCTCGACTTG)	0.0411
CTCTCCGCTTGGGTTCTAACCTGTTGCCT (site CTCTCCGCTAG)	0.77
CTCTCCGCTTGGGTTCTAACCTGTTGCCT (site CTCTCCTCTAG)	0.0931
CTCTCGACTTGGGTTCTAACCTGTTGCCA (site CTCTCCACTTG)	0.0478
CTCTCGACTTGGGTTCTAACCTGTTGCCA (site CTCTCGACTTG)	0.328
CTCTCGTCTTGGGTTCTAACCTGTTGCAT (site CTCTCGTCTAA)	0.0866
CTCTCGTCTTGGGTTCTAACCTGTTGCAT (site CTCTCGTCTAC)	0.08
CTCTCGTCTTGGGTTCTAACCTGTTGCAT (site CTCTCGTCTAG)	0.0361
CTCTCGTCTTGGGTTCTAACCTGTTGCAT (site CTCTCGTCTAT)	1.45
CTCTCGTCTTGGGTTCTAACCTGTTGCGG (site CTCTCGTCTCC)	1.16
CTCTCGTCTTGGGTTCTAACCTGTTGCGG (site GGACGTGCTAG)	0.127
CTCTGGACTTGGGTTCTAACCTGTTGCTT (site CTCTGGACTAA)	1.13
CTCTGGACTTGGGTTCTAACCTGTTGCTT (site CTCTTGACTAA)	0.0289
CTCTTCGCTTGGGTTCTAACCTGTTGCCT (site CTCTTCACTCG)	0.208
CTCTTCGCTTGGGTTCTAACCTGTTGCCT (site CTCTTCGCTAG)	0.314
CTGAAGCCTTGGGTTCTAACCTGTTGCCT (site ATGAAGCCTAG)	0.0394
CTGAAGCCTTGGGTTCTAACCTGTTGCCT (site CTGAAGCCTAG)	1.74
CTGAAGCCTTGGGTTCTAACCTGTTGCCT (site GTGAAGCCTAG)	0.386
CTGAAGCCTTGGGTTCTAACCTGTTGCCT (site TTGAAGCCTAG)	0.409
CTGACTTCTTGGGTTCTAACCTGTTGCCT (site CAGACTTCTAG)	0.0484
CTGACTTCTTGGGTTCTAACCTGTTGCCT (site CCGACTTCTAG)	0.0377
CTGACTTCTTGGGTTCTAACCTGTTGCCT (site CGGACTTCTAG)	0.079
CTGACTTCTTGGGTTCTAACCTGTTGCCT (site CTGACTTCTAG)	0.121
CTGAGTACTTGGGTTCTAACCTGTTGCCT (site ATCAGTACTAG)	0.0653

Sequence	recombinant barcode read abundance (log10)
CTGAGTACTTGGGTTCTAACCTGTTGCCT (site CTGAGTACTAG)	1.08
CTGAGTCCTTGGGTTCTAACCTGTTGCCA (site CTGAGTCCTTG)	0.424
CTGAGTCCTTGGGTTCTAACCTGTTGCCA (site CTGAGTTCTTG)	0.402
CTGATCCCTTGGGTTCTAACCTGTTGCCT (site CAGATCCCTAG)	0.629
CTGATCCCTTGGGTTCTAACCTGTTGCCT (site CCGATCCCTAG)	0.182
CTGATCCCTTGGGTTCTAACCTGTTGCCT (site CGGATCCCTAG)	0.255
CTGATCCCTTGGGTTCTAACCTGTTGCCT (site CTGATCCCTAG)	1.22
CTGATGACTTGGGTTCTAACCTGTTGCCT (site CTGATAACTAG)	0.177
CTGATGACTTGGGTTCTAACCTGTTGCCT (site CTGATCACTAG)	0.247
CTGATGACTTGGGTTCTAACCTGTTGCCT (site CTGATGACTAG)	0.999
CTGATGACTTGGGTTCTAACCTGTTGCCT (site CTGATTACTAG)	0.0174
CTGATGTCTTGGGTTCTAACCTGTTGCCA (site CTGATGTCTTG)	0.456
CTGATGTCTTGGGTTCTAACCTGTTGCCA (site CTGCTGTCTTG)	0.126
CTGATGTCTTGGGTTCTAACCTGTTGCCA (site CTGGTGTCTTG)	0.388
CTGATGTCTTGGGTTCTAACCTGTTGCCA (site CTGTTGTCTTG)	0.136
CTGCACCCTTGGGTTCTAACCTGTTGCTA (site CTGCACCCTTA)	1.61
CTGCACCCTTGGGTTCTAACCTGTTGCTA (site GGCGGAGCTCG)	0.378
CTGCACTCTTGGGTTCTAACCTGTTGCCA (site CTGCACTCTTG)	0.842
CTGCACTCTTGGGTTCTAACCTGTTGCCA (site CTGTACTCTAG)	0.28
CTGCAGACTTGGGTTCTAACCTGTTGCCG (site CTCCAGACTCT)	0.37
CTGCAGACTTGGGTTCTAACCTGTTGCCG (site CTGCAGACTCG)	0.41
CTGCAGTCTTGGGTTCTAACCTGTTGCCA (site CTGCAGTCTTG)	0.18
CTGCAGTCTTGGGTTCTAACCTGTTGCCA (site TGCATAGCTCT)	0.126
CTGCTCCCTTGGGTTCTAACCTGTTGCGG (site CTGATCCCTCC)	0.124
CTGCTCCCTTGGGTTCTAACCTGTTGCGG (site CTGCTCCCTCC)	0.36
CTGCTCCCTTGGGTTCTAACCTGTTGCGG (site CTGGTCCCTCC)	0.306

Sequence	recombinant barcode read abundance (log10)
CTGCTCCCTTGGGTTCTAACCTGTTGCGG (site CTGTTCCCTCC)	0.0581
CTGGAGACTTGGGTTCTAACCTGTTGCTT (site AGAACTCCTTC)	0.0253
CTGGAGACTTGGGTTCTAACCTGTTGCTT (site CTGGAGACTAA)	1.93
CTGGCCACTTGGGTTCTAACCTGTTGCCT (site CAGGCCACTAG)	0.115
CTGGCCACTTGGGTTCTAACCTGTTGCCT (site CCGGCCACTAG)	0.0832
CTGGCCACTTGGGTTCTAACCTGTTGCCT (site CGGGCCACTAG)	0.0825
CTGGCCACTTGGGTTCTAACCTGTTGCCT (site CTGGCCACTAG)	0.766
CTGGCGTCTTGGGTTCTAACCTGTTGCCT (site CTGGAGTCTAG)	0.263
CTGGCGTCTTGGGTTCTAACCTGTTGCCT (site CTGGCGTCTAG)	1.1
CTGGCGTCTTGGGTTCTAACCTGTTGCCT (site CTGGGGTCTAG)	0.0321
CTGGCGTCTTGGGTTCTAACCTGTTGCCT (site CTGGTGTCTAG)	0.0782
CTGGGAACTTGGGTTCTAACCTGTTGCAG (site CTCGGAACTAT)	0.149
CTGGGAACTTGGGTTCTAACCTGTTGCAG (site CTGGGAACTCT)	0.836
CTGGGGTCTTGGGTTCTAACCTGTTGCCT (site CTGGAGTCTAG)	0.858
CTGGGGTCTTGGGTTCTAACCTGTTGCCT (site CTGGCGTCTAG)	0.36
CTGGGGTCTTGGGTTCTAACCTGTTGCCT (site CTGGGGTCTAG)	2.45
CTGGGGTCTTGGGTTCTAACCTGTTGCCT (site CTGGTGTCTAG)	0.173
CTGGTGTCTTGGGTTCTAACCTGTTGCCA (site CTGATGTCTTG)	0.0384
CTGGTGTCTTGGGTTCTAACCTGTTGCCA (site CTGCTGTCTTG)	0.0405
CTGGTGTCTTGGGTTCTAACCTGTTGCCA (site CTGGTGTCTTG)	1.12
CTGGTGTCTTGGGTTCTAACCTGTTGCCA (site CTGTTGTCTTG)	0.434
CTGTACTCTTGGGTTCTAACCTGTTGCCT (site CTGCACTCTTG)	0.126
CTGTACTCTTGGGTTCTAACCTGTTGCCT (site CTGTACTCTAG)	1.3
CTGTGAGCTTGGGTTCTAACCTGTTGCAG (site AACAATACTAG)	0.107
CTGTGAGCTTGGGTTCTAACCTGTTGCAG (site CTGTGAGCTCT)	1.47
